This note sets out measurements from patent US20040175383A1, “Methods and compositions for treatment of otitis media” (priority 2002, published 2004).

Read-outs that look alike come from different tables or passages of the source.

Data set [1] has as its system MMP activity (tMMP, predominantly MMPs 2 and 9) in MEE samples. In words: MMP activity in human middle ear effusion samples in the presence of ilomastat (colorimetric synthetic substrate assay). The data set is classed as biochemical. Set-up: Inhibition of MMP activity, overall / Ilomastat-MMP Inhibition % (mean inhibition): concentration or dose not given beside the values. The note with it: for Ilomastat-MMP Inhibition % (mean inhibition) / MMP >30% Inhibition (percent of samples that had enzyme activity inhibited by >30%): MEE samples. The source says:
Human Subjects & Sample Collection: Middle ear effusion (MEE) samples were collected from all consenting patients that presented to the investigators for the treatment of OM. Most samples were taken from subjects at the time of myringotomy, with or without tube placement, for recurrent acute otitis media (RAOM) and chronic otitis media with effusion (COME). Less commonly, samples were collected upon presentation with acute post-tympanostomy otorrhea (APTO) or with chronic suppurative otitis media (CSOM). Samples were aspirated with a Juhn Tymp-Tap (Medtronic-Xomed, Jacksonville, Fla.). The aspiration device was rinsed—and sample diluted—with 500 μl of normal saline and immediately placed on ice for transport to the investigators' laboratories. Samples were centrifuged to remove cellular material then divided into aliquots and frozen until batch processing could be performed.
Protease and Inhibition Analysis: Active (aMMP) and proenzyme (pMMP) forms of MMPs 2 and 9 were measured using a gelatin zymography technique. MMP activity (tMMP, but predominantly MMPs 2 and 9) present in MEE samples was measured using a […] assay that uses a synthetic substrate that reduces Ellmans reagent upon cleavage. Because two different activity assays were used that detected different types and levels of MMPs, a direct comparison between aMMP, pMMP and tMMP was not considered valid. Human neutrophil elastase (HNE) activity was measured using a standard technique. Results were expressed as change in absorbance over time (mAU/min). […] Samples with excessive activity levels were tested by serial dilution. MMP activity was measured in the presence of physiologically deliverable levels of ilomastat.
Statistical Analysis: An analysis of variance was performed on the enzyme activities and mean inhibition of activities to determine if there were differences activities across diagnoses, middle ear findings. If there were statistically significant differences, […] tests were performed. […] The distribution of patients with an activities greater than 3 mAU/min and inhibition greater than 30% was tested using Fisher's exact test to determine if there was a difference in these distributions across diagnoses.

The conditions of data set [2]: in vivo.
Method: (§1) Prospective, randomized, controlled trial in the chinchilla model.
(§2) After completing baseline auditory testing and bilateral transpalatal obstruction of the Eustachian tube (ETO), chinchillas received weekly transbullar injections of protease inhibitor (alpha 1-antitrypsin, ilomastat, or both), vehicle, or saline. After one month, hearing was tested and the animals were sacrificed. Temporal bone histopathology was performed.
(§3) A total of 96 healthy adult chinchillas of either sex, 400-600 grams, were used in this experiment. Prior to entry into the study, all animals were otomicroscopically free of middle ear pathology. All animals underwent auditory testing and bilateral transpalatal obstruction of the Eustachian tube, followed by immediate transbullar injection (across the thin bone covering the dorsal aspect of the middle ear) of saline or vehicle solution, with or without protease inhibitor. Thus, there were five treatment groups: saline, vehicle solution, vehicle with alpha 1-antitrypsin (100 μg /ml), vehicle with ilomastat (100 μg /ml), and vehicle with alpha 1-antitrypsin and ilomastat (100 μg /ml of each). Weekly thereafter, animals received a light anesthetic for ear examinations, transbullar sampling of the middle ear fluid, and transbullar reinjection of saline or the vehicle +/− protease inhibitor. One month after ETO, animals were anesthetized, middle ear fluid was removed, and auditory testing was performed immediately prior to sacrifice. Temporal bones were harvested for histopathological analysis.
(§4) Ilomastat was prepared by substituting alpha 1-antitrypsin. Vehicle was similarly prepared, without the addition of any protease inhibitor. Injectable, 0.9% normal saline was used as the non-treatment control.
(§5) Briefly, the palate was split and the Eustachian tube orifices were bluntly palpated. The orifices were denuded of mucosa, the deeper tissues cauterized, and the lumen packed with Gelfoam sponge. The palate was reapproximated with a single layer of polyglycolic acid sutures.
(§6) Auditory Evaluation: Assessment of auditory thresholds was performed using electrocochleography. […] Electrocochleographic thresholds were measured for clicks and tone pips at 4, 8, 12, and 16 kHz. Stimulus generation was executed by an auditory electrophysiology workstation with SigGen™ and AeP™ software (Tucker-Davis Technologies, Gainesville, Fla.) and Etymotic transducers (ER-2, Elk Grove Village, Ill.). Stimuli were introduced with an insert earphone tube placed into the external auditory canal, just medial to the crus of the helix. Auditory thresholds were evaluated by decreasing stimulus intensity in 5 dB increments, from a maximum of 100 dB, until the waveform disappeared. At that point, the stimulus intensity was increased in 5 dB increments until the waveform re-emerged. […]
The test system of data set [3] is inner ear / hearing (electrocochleographic thresholds). In words: Ototoxicity study in chinchilla with Eustachian tube obstruction, weekly transbullar injection of protease inhibitors. The conditions noted are these: applied to the middle ear.
Method: as §1, §2, §3, §4, §5, §6
In data set [4] the test system is acute otitis media induced by Streptococcus pneumoniae. The data set is classed as in vivo, chinchilla. The protocol: All study animals were initially anesthetized to allow baseline hearing testing (electrocochleography and tympanometry) and to allow bacteria (Streptococcus pneumoniae) to be injected across the thin bone covering the middle ear (dorsal bulla) to induce a middle ear infection bilaterally. After allowing the inflammation to become established for 3 to 4 days, the ears were graded for severity of middle ear inflammation. Half the ears were injected with alpha 1-antitrypsin (100 mg/ml)half with saline. All animals received systemic antibacterial treatment (enrofloxacin). […] Assessment was given quantiatively according to the following table: [table] Hearing assessment were also performed throughout the study and following euthanasia at the end of study, temporal bone specimens were obtained from all ears for histopathological analysis.

In data set [5] the test system is inner ear / hearing (electrocochleographic thresholds). The note with it: in vivo.
Method: as §1, §2, §3, §4, §5, §6

In the case of `CNC(=O)[C@H](Cc1c[nH]c2ccccc12)NC(=O)[C@@H](CC(=O)NO)CC(C)C` [Ilomastat, N-[2(R)-2(hydroxyamidocarbonylmethyl)-4-methylpentanoyl]-L-tryptophan methyl amide], the “Ilomastat-MMP Inhibition % (mean inhibition)” value was 41.2% in data set [1] (diagnosis APTO); 70.0% in data set [1] (diagnosis COME); 51.5% in data set [1] (diagnosis CSOM); 31.5% in data set [1] (diagnosis Cholesteatoma); 85.5% in data set [1] (diagnosis RAOM); 81.4% in data set [1] (diagnosis RAOM/COME). Moreover, the “MMP >30% Inhibition (percent of samples that had enzyme activity inhibited by >30%)” value is listed as 57% in data set [1] (diagnosis APTO); 86% in data set [1] (diagnosis COME); 40% in data set [1] (diagnosis CSOM); 71% in data set [1] (diagnosis Cholesteatoma); 100% in data set [1] (diagnosis RAOM); 100% in data set [1] (diagnosis RAOM/COME). In addition, the “Percent of MEEs with significant inhibition (>30% reduction) of MMP activity” value in data set [1] (MEEs with significant MMP activity (>3 mAU/min)) was 80%. Further, the “Inhibition of MMP activity, overall” value in data set [1] (all MEE samples) is listed as 64%. Further, the “Persistence of middle ear effusion at the final treatment day (percent of ears)” value in data set [2] is on record as 83%. Moreover, in data set [3], the “Ototoxicity in the chinchilla model” value is on record as “lack ototoxicity”.
In the case of “rAAT: Recombinant alpha 1-antitrypsin, a serine protease inhibitor, expressed in recombinant yeast cells and purified by column chromatography”, the “TM Score” value in data set [4] (Day 1, otomicroscopic scale 0 (normal) to 6 (perforated)) stood at 0; in data set [4] (Day 4, scale 0-6) it was 2.167; in data set [4] (Day 6, scale 0-6), 4.17; in data set [4] (Day 8, scale 0-6), 3.5; in data set [4] (Day 10, scale 0-6), 2.8; in data set [4] (Day 14, scale 0-6) it was 1.25. Further, the “TM Score” value is on record as 0.75 in data set [4] (Day 16, scale 0-6); 0.5 in data set [4] (Day 18, scale 0-6); 0.5 in data set [4] (Day 20, scale 0-6); 0 in data set [4] (Day 22, scale 0-6); 0 in data set [4] (Day 24, scale 0-6); 0 in data set [4] (Day 26, scale 0-6). Moreover, in data set [4] (Day 28, scale 0-6), the “TM Score” value amounted to 0. For the same compound, the “Middle ear inflammation by otomicroscopy, compared with saline” value in data set [4] (otic administration, with systemic enrofloxacin) is “mitigated the inflammatory process more rapidly than saline”. Also, the “Time to resolution of clinical manifestations of otitis media” value in data set [4] (single application of rAAT, control 26 days) was 22 days. Moreover, the “Persistence of middle ear effusion at the final treatment day (percent of ears)” value in data set [2] stood at 100%. For the same compound, the “Ototoxicity in the chinchilla model” value in data set [5] is listed as “lack ototoxicity”.
